{"source": "paper PMC10202359", "about": "“Nicotinamide N-methyltransferase (NNMT) regulates the glucocorticoid signaling pathway during the early phase of adipogenesis” (Scientific Reports, 2023)", "key": {"DNMT1": {"target": "DNMT1 (Homo sapiens, UniProt P26358)", "assay": "Methyltransferase Hot Spot radioisotope assay, DNMT1", "assay_type": "biochemical", "conditions": "10-dose, threefold dilution; CC-410 from 300 μM, control from 100 μM; substrate Poly dI-dC", "method": "(§1) CC-410 was screened in biochemical assays for activity against a panel of 11 methyltransferases (MT) by using the radioisotope (3H-AdoMet) based MT Hot Spot Assay. All the assays were performed by Reaction Biology Corporation (RBC, Malven, PA, USA). Briefly CC-410 was incubated with the selected MTs, corresponding substrates, and radiolabeled SAM (S-Adenosyl-L-[methyl-3 H]methionine). The specific MTs assessed, and the corresponding substrates are as follows: DNMT1- Poly dl-dC, DNMT3a- Lambda DNA, DNMT3b- Lambda DNA, DOT1L- Nucleosomes, EZH2 Complex- Core Histone, METTL21A- HSPA8-[CTD], NRMT1- RCC1, PRMT3- Histone H4, PRMT5/MEP50- Histone H2A, SET1b -Core Histone Complex and SMYD2- Nucleosomes. Reaction mixtures were incubated and spotted onto filter papers, which were then washed to remove unreacted SAM, leaving the bound radiolabeled product. Detection of the radiolabeled, methylated product was performed via a nanoliter-scale radioisotope filter binding platform. […] For each assay, control compounds were included as positive controls for enzyme function and assay reproducibility. […] IC50 was calculated by non-linear least square fitting dose–response curve."}, "SET1b Complex": {"target": "T1, SET1b Complex (Homo sapiens, UniProt Q9UPS6)", "T1 construct": "purchased Reaction Biology Corporation", "assay": "Methyltransferase Hot Spot radioisotope assay, SET1b Complex", "assay_type": "biochemical", "method": "as §1"}, "PRMT3": {"target": "PRMT3 (Homo sapiens, UniProt O60678)", "sequence (O60678 whole entry, species assumed)": "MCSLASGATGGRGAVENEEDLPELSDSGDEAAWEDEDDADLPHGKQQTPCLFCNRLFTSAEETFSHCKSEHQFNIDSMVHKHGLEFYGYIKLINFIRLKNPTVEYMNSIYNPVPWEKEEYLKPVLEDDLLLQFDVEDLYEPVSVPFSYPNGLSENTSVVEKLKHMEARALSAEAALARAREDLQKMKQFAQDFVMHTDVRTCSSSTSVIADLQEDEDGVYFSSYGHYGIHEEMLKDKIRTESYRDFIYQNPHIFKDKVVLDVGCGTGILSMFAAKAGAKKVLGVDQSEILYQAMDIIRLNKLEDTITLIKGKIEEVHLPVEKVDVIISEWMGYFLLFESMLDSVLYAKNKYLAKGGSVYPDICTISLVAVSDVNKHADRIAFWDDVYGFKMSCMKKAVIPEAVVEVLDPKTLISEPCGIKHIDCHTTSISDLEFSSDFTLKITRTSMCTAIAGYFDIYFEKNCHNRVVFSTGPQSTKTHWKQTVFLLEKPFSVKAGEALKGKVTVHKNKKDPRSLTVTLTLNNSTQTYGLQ", "assay": "Methyltransferase Hot Spot radioisotope assay, PRMT3", "assay_type": "biochemical", "conditions": "text and Fig. 4D curve fit; read-out: IC50 for PRMT3", "method": "as §1, with “The specific MTs assessed, and the corresponding substrates are as follows: DNMT1- Poly dl-dC, DNMT3a- Lambda DNA, DNMT3b- Lambda DNA, DOT1L- Nucleosomes, EZH2 Complex- Core Histone, METTL21A- HSPA8-[CTD], NRMT1- RCC1, PRMT3- Histone H4, PRMT5/MEP50- Histone H2A, SET1b -Core Histone Complex and SMYD2- Nucleosomes.” left out"}, "EZH2 Complex": {"target": "T2, EZH2 Complex (Homo sapiens, UniProt Q15910)", "T2 construct": "purchased Reaction Biology Corporation", "T2 sequence (Q15910 whole entry)": "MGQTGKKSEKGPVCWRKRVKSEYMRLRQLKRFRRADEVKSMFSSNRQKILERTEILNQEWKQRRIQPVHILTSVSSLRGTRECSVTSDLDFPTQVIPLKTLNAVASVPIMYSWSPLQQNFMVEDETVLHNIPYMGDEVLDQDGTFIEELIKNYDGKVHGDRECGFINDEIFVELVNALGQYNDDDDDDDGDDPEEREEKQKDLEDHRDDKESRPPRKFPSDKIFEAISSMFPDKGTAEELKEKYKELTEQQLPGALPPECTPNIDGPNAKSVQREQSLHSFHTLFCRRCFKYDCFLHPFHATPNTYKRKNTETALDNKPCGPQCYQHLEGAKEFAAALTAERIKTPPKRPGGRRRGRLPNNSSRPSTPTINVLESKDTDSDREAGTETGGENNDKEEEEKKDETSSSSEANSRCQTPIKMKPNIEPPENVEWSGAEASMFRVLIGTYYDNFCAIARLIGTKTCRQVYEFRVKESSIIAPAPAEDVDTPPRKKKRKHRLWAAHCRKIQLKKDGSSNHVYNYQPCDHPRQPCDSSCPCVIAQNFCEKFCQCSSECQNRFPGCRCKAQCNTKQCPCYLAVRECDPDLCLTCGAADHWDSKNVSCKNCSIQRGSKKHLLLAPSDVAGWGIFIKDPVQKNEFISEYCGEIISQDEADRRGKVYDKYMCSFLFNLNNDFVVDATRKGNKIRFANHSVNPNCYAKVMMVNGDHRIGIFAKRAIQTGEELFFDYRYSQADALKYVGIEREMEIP", "T2 sequence (O75530 whole entry partner)": "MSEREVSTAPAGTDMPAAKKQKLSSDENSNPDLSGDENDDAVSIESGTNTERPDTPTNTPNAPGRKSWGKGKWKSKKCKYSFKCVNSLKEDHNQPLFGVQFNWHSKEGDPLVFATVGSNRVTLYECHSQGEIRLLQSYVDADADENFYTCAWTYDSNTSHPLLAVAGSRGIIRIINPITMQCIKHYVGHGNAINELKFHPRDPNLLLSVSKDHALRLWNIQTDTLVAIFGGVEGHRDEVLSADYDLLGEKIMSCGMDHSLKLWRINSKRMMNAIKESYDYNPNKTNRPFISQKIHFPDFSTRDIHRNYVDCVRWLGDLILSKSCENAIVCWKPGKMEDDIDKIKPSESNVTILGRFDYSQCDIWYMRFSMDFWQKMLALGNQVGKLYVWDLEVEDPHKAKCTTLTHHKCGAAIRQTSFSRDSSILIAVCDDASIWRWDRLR", "T2 sequence (Q15022 whole entry partner)": "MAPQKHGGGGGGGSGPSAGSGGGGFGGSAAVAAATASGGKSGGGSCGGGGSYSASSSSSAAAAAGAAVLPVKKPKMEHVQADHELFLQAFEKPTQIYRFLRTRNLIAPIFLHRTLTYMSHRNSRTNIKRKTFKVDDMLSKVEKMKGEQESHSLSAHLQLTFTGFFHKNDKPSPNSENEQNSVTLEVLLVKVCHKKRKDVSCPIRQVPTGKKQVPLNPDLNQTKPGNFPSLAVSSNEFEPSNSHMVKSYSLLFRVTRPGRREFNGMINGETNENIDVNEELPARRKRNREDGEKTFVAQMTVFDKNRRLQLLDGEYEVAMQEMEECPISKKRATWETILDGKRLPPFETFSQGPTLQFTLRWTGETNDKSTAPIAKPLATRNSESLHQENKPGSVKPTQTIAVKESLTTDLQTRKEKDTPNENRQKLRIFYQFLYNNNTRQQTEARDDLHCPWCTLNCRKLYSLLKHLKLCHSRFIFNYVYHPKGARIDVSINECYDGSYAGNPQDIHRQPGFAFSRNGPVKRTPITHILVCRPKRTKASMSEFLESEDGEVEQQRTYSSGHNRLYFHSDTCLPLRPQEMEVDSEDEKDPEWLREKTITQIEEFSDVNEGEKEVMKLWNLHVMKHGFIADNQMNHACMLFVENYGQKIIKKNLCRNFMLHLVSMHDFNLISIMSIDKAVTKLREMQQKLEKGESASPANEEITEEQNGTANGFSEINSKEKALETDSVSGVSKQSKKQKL", "T2 sequence (Q09028 whole entry partner)": "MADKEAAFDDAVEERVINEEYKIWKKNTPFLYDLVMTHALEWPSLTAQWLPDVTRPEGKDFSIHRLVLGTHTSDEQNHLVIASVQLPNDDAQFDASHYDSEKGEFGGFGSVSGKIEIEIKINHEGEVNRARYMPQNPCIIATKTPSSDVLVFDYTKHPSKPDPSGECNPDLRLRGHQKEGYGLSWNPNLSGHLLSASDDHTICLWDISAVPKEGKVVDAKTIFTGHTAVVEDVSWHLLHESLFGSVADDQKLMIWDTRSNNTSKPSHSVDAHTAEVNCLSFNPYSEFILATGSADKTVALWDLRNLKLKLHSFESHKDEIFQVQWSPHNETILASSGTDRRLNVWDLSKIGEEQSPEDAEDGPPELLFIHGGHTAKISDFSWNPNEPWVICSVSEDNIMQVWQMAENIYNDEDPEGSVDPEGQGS", "T2 sequence (Q6ZN18 whole entry partner)": "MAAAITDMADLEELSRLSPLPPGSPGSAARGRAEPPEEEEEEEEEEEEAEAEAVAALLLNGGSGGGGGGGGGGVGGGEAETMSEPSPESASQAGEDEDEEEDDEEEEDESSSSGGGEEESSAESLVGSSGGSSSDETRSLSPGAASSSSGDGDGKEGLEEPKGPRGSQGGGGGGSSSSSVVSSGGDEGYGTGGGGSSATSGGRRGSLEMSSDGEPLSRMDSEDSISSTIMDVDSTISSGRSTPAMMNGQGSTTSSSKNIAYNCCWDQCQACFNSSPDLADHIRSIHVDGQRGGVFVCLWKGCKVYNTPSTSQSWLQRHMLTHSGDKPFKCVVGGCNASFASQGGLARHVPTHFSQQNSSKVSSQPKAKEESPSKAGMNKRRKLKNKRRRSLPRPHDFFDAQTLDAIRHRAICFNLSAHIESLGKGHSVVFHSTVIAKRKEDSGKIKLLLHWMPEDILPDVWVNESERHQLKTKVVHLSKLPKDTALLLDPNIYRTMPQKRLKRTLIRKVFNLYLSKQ", "assay": "Methyltransferase Hot Spot radioisotope assay, EZH2 Complex", "assay_type": "biochemical", "conditions": "10-dose, threefold dilution; CC-410 from 300 μM, control from 100 μM; substrate Core Histone", "method": "as §1"}, "DNMT3b": {"target": "T3, DNMT3b (Homo sapiens, UniProt Q9UBC3)", "T3 construct": "purchased Reaction Biology Corporation", "assay": "Methyltransferase Hot Spot radioisotope assay, DNMT3b", "assay_type": "biochemical", "conditions": "10-dose, threefold dilution; CC-410 from 300 μM, control from 100 μM; substrate Lambda DNA", "method": "as §1"}, "C3H10T1/2 cells": {"tested_on": "C3H10T1/2 cells", "assay": "Oil Red-O staining of adipocyte differentiation, C3H10T1/2", "assay_type": "cell-based, mouse", "conditions": "25 µM, first 48 h of DIM induction or throughout the period of differentiation", "method": "3T3-L1 Mouse Embryonic Fibroblasts were purchased from American Type Culture Collection (ATCC CL-173). The cells were propagated and maintained in Dulbecco’s modified Eagle’s medium (DMEM, Gibco) supplemented with 10% calf serum (FCS) at 37 °C in 5% CO2 atmosphere. Subconfluents cells were expanded and utilized for the subsequent experiments at the passages 3–6. To induce differentiation, 2-day post-confluent 3T3-L1 pre-adipocytes were cultured for 48 h with DIM (DMEM supplemented with 10% fetal bovine serum (FBS), 1.0 µM Dexamethasone (G. Biosciences), 1.5 mg/mL Insulin (Sigma) and 0.5 mM IBMX (Sigma). Two days after induction the DIM medium was removed and the cells were maintained in DMED supplemented with 10% FBS and […] Insulin, which was replaced every 48 h, until the cells became fully differentiated (8–10 days after induction). C3H10T1/2 cells were purchased from American Type Culture Collection (ATCC, clone 8, CCL-226, were grown and induced to differentiate following the same protocol, with cell cultures < 3 passages. Oil Red-O staining was used as previously described. Briefly, cells were fixed for 30 min with 4% formaldehyde, stained with filtered Oil Red solution (0.2% oil red in 40% 2-propanol) and washed 5 times with distilled water. […] The dye was eluted with 100% 2-propanol and quantified spectroscopically at 510 nm (Synergy HT, Bio-Tek)."}, "NRMT1": {"target": "T4, NRMT1 (Homo sapiens, UniProt Q9BV86)", "T4 sequence (Q9BV86 1-223)": "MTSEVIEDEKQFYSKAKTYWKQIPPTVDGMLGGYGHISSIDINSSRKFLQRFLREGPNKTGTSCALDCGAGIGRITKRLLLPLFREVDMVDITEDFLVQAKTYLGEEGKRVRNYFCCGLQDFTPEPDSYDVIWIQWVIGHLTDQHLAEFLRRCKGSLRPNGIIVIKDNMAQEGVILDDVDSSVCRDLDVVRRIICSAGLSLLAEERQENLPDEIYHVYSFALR", "assay": "Methyltransferase Hot Spot radioisotope assay, NRMT1", "assay_type": "biochemical", "conditions": "10-dose, threefold dilution; CC-410 from 300 μM, control from 100 μM; substrate RCC1", "method": "as §1"}, "METTL21A": {"target": "METTL21A (Homo sapiens, UniProt Q8WXB1)", "sequence (Q8WXB1 whole entry, species assumed)": "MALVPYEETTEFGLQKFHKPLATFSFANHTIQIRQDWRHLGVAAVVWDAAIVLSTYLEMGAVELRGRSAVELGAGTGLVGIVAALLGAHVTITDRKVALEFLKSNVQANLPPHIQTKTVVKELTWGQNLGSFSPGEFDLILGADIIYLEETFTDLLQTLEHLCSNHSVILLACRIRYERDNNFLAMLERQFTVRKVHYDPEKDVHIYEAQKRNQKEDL", "assay": "Methyltransferase Hot Spot radioisotope assay, METTL21A", "assay_type": "biochemical", "conditions": "10-dose, threefold dilution; CC-410 from 300 μM, control from 100 μM; substrate HSPA8-[CTD]", "method": "as §1, with “The specific MTs assessed, and the corresponding substrates are as follows: DNMT1- Poly dl-dC, DNMT3a- Lambda DNA, DNMT3b- Lambda DNA, DOT1L- Nucleosomes, EZH2 Complex- Core Histone, METTL21A- HSPA8-[CTD], NRMT1- RCC1, PRMT3- Histone H4, PRMT5/MEP50- Histone H2A, SET1b -Core Histone Complex and SMYD2- Nucleosomes.” left out"}, "DOT1L": {"target": "T5, DOT1L (Homo sapiens, UniProt Q8TEK3)", "T5 construct": "purchased Reaction Biology Corporation", "assay": "Methyltransferase Hot Spot radioisotope assay, DOT1L", "assay_type": "biochemical", "conditions": "10-dose, threefold dilution; CC-410 from 300 μM, control from 100 μM; substrate Nucleosomes", "method": "as §1"}, "PRMT5/MEP50": {"target": "T6, PRMT5/MEP50 (Homo sapiens, UniProt O14744)", "T6 construct": "purchased Reaction Biology Corporation", "T6 sequence (O14744 whole entry, species assumed)": "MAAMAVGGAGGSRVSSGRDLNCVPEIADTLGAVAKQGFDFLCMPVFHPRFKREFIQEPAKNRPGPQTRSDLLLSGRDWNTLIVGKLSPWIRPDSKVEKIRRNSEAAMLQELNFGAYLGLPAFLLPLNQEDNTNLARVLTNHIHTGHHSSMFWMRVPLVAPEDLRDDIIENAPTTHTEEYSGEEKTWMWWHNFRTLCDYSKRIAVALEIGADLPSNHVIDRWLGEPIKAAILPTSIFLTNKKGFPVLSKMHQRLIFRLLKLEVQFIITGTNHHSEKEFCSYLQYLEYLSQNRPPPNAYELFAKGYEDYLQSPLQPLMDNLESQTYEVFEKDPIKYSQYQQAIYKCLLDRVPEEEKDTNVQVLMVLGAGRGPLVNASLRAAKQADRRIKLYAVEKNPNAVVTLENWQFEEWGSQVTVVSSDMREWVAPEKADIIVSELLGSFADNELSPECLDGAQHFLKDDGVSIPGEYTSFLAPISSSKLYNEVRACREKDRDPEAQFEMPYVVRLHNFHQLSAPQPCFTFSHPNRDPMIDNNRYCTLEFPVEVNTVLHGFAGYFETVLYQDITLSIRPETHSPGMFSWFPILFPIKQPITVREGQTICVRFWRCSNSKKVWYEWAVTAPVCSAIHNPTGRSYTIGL", "T6 sequence (Q9BQA1 whole entry partner, species assumed)": "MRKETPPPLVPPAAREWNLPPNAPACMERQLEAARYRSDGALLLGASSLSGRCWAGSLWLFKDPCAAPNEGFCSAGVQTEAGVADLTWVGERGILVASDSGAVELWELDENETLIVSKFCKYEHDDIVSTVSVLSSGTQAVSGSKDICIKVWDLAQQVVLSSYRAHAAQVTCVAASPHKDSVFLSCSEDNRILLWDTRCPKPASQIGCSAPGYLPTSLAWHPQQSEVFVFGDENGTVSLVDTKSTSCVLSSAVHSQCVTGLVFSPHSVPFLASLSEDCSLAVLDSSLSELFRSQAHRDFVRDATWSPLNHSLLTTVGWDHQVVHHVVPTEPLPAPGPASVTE", "assay": "Methyltransferase Hot Spot radioisotope assay, PRMT5/MEP50", "assay_type": "biochemical", "conditions": "10-dose, threefold dilution; CC-410 from 300 μM, control from 100 μM; substrate Histone H2A", "method": "as §1"}, "DNMT3a": {"target": "T7, DNMT3a (Homo sapiens, UniProt Q9Y6K1)", "T7 construct": "purchased Reaction Biology Corporation", "assay": "Methyltransferase Hot Spot radioisotope assay, DNMT3a", "assay_type": "biochemical", "conditions": "10-dose, threefold dilution; CC-410 from 300 μM, control from 100 μM; substrate Lambda DNA", "method": "as §1"}}, "note": "Read-outs that look alike come from different tables or passages of the source."}
{"smiles": "COC(=O)CCC(C)C1CCC2C3C(N)CC4CC(OC(C)=O)CCC4(C)[C@H]3CC(N)C12C", "note": "(stereo in doubt) [CC-410, Methyl-(4S)-4-((3S,5S,7S,8S,10R,12R,13S,14R,17S)-3-acetoxy-7,12-diamino-10,13-dimethylhexadecahydro-1H-cyclopenta[a]phenanthren-17-yl) pentanoate]", "values": [{"measurement": "IC50* (M) DNMT1", "setting": "DNMT1", "result": "no inhibition or compound activity that could not be fitted to an IC50 curve"}, {"measurement": "IC50", "setting": "SET1b Complex; 10-dose, threefold dilution, CC-410 from 300 μM, control from 100 μM, substrate Core Histone, read-out: IC50* (M) SET1b Complex", "result": 0.000121, "unit": "M"}, {"measurement": "IC50", "setting": "SET1b Complex; text and Fig. 4D curve fit, read-out: IC50 for SET1b Complex", "result": 0.00012, "unit": "M"}, {"measurement": "IC50", "setting": "PRMT3", "result": 104, "unit": "µM"}, {"measurement": "IC50* (M) EZH2 Complex", "setting": "EZH2 Complex", "result": "no inhibition or compound activity that could not be fitted to an IC50 curve"}, {"measurement": "IC50* (M) DNMT3b", "setting": "DNMT3b", "result": "no inhibition or compound activity that could not be fitted to an IC50 curve"}, {"measurement": "effect on adipogenesis", "setting": "C3H10T1/2 cells", "result": "effectively inhibit adipogenesis"}, {"measurement": "IC50* (M) NRMT1", "setting": "NRMT1", "result": "no inhibition or compound activity that could not be fitted to an IC50 curve"}, {"measurement": "IC50* (M) METTL21A", "setting": "METTL21A", "result": "no inhibition or compound activity that could not be fitted to an IC50 curve"}, {"measurement": "IC50* (M) DOT1L", "setting": "DOT1L", "result": "no inhibition or compound activity that could not be fitted to an IC50 curve"}, {"measurement": "IC50* (M) PRMT5/MEP50", "setting": "PRMT5/MEP50", "result": "no inhibition or compound activity that could not be fitted to an IC50 curve"}, {"measurement": "IC50* (M) DNMT3a", "setting": "DNMT3a", "result": "no inhibition or compound activity that could not be fitted to an IC50 curve"}]}
